# Experimental data: patent US4892740A, “Orally administrable pharmaceutical preparation of improved flavoring characteristics” (Taisho Pharmaceutical Co., Ltd., priority 1987, dated 1990)
# Assay: Blood concentration of TE-031 after oral administration to Beagle dogs (bioassay method)
# Assay type: in vivo
# Conditions: dog, male Beagle dogs
# Protocol: Test Animals Five male Beagle dogs weighing 10 kg were used as experimental animals. Sample The pharmaceutical preparation obtained in Example 1 (coated particles containing 39% of TE-031 prepared by using AEA powder having an average particle diameter of 16 microns as the powder bed) was used in an amount of 100 mg as TE-031. Testing procedure The sample was orally administered together with water to the experimental animals, and the concentration of TE-031 in the blood was measured by the bioassay method. Then after a period of 10 days during which the sample was not administered, a capsule containing 100 mg of the bulk of TE-031 was orally administered as a control together with water. The concentration of TE-031 in the blood was likewise measured by bioassay.
smiles,measurement,setting,value
"CC[C@H]1OC(=O)[C@H](C)[C@@H](O[C@H]2C[C@@](C)(OC)[C@@H](O)[C@H](C)O2)[C@H](C)[C@@H](O[C@@H]2O[C@H](C)C[C@H](N(C)C)[C@H]2O)[C@](C)(OC)C[C@@H](C)C(=O)[C@H](C)[C@@H](O)[C@]1(C)O [bulk, 6-O-methylerythromycin A]",AUC,"100 mg as TE-031, read-out: area below the blood level curve",42400 ng·h/mL
same,Cmax,"100 mg as TE-031, read-out: maximum blood level",3060 ng/mL
same,Tmax,"100 mg as TE-031, read-out: time of highest blood level",2 h
